Test results: US8450293B2, “Synthesis and characterization of C8 analogs of c-di-GMP” (Rutgers, The State University of New Jersey, priority 2010, dated 2013)

Tests used:
[1] = similar concentrations; Zhang et al. 2004; cited from earlier work
[2] = NMR / 2D DOSY study of metal-dependent complex formation; type: physicochemical; details: NMR concentrations (26-31 mM)
Excerpt: Three larger and three smaller resonances clustered near 6 ppm, from the H1′ were observed. Diffusion coefficients (D, m^2/s×10^−1), obtained from a separate 2D DOSY experiment on the same sample, are indicated in parentheses. […] (Zhang et al., J. Am. Chem. Soc. 2006, 128, 7015-7024; Zhao et al., Nucleosides Nucleotides Nucl. Acids 2009, 28, 352-378) Here, all three larger resonances have D=1.5, indicative of octamolecular complexes. The two farthest downfield of the three smaller resonances have D=1.7, indicative of tetramolecular complexes (the octamolecular having been already identified), and the remaining farthest upfield smaller resonance has D=3.5, indicative of a bimolecular structure. At 5° C., all three smaller resonances nearly disappear, leaving primarily the three larger ones. The octamolecular complexes are expected to be preferentially stabilized at lower temperatures. At 55° C., the three larger resonances all decrease, and only the farthest upfield of the smaller resonances increases, confirming it is the bimolecular structure. The higher order complexes are disrupted at higher temperatures, leaving the bimolecular structure dominant.
All NMR spectra were acquired on a Varian VNMRS 500 MHz spectrometer. Samples were 31 mM of 2, 27 mM of 3, 26 mM of […] of 5, and 26 mM of 6, each in 0.30 mL H2O containing 10% D2O. The pH of all samples was adjusted to 6.8, using either HCl or KOH/NaOH/LiOH, as appropriate. Each sample was heated to 75° C. for 10 minutes, then allowed to cool to room temperature before being transferred to the NMR tube. The ^1H and ^13C NMR spectra were referenced to sodium trimethylsilylpropylsulfonate in D2O, and the ^31P NMR spectra were referenced to 10% phosphoric acid in D2O. The 1D ^1H NMR spectra used frequency pre-saturation for water suppression. The DOSY spectra used a pre-saturation pulse for water suppression. The data were collected using a 2.5 second relaxation delay over an 8000 Hz spectral width, with 16 repetitions over 256 increments and a diffusion delay of 0.1 seconds. For the HMBC experiments, the ^1H spectra were acquired with 16 scans, with acquisition time and relaxation delay of 2 s and 1.5 s, respectively. To suppress water, ^1H pre-saturation was applied during the relaxation delay. The ^13C spectra were acquired with 1024 scans, with acquisition time and relaxation delay of 0.5 s and 1 s, respectively. For NOE enhancement and ^1H decoupling, ^1H WALTZ16 decoupling was applied during the entire experiment. ^1H-^13C HMBC 2D spectra were acquired using 2048 (t2) times 100 (t1) complex points with spectral widths of 8000 Hz (t2) and 10000 Hz (t1) and transformed to spectra with 2048 (D1) times 1024 (D2) real points after two times linear prediction in t1. The number of scans per each t1 increment was 128 and the relaxation delay for each scan was 1.5 s. To suppress water, ^1H pre-saturation was applied during the relaxation delay. The DEPT transfer delay for HMBC was chosen as ^2,3JHC=20 Hz (the multi-bond coupling constant) and ^1JHC (the one-bond coupling constant) was set as 140 Hz to suppress cross peaks contributed from the one-bond ^1H-^13C connectivity.

[3] = Solubility in water (noted when preparing NMR samples); type: physicochemical; details: K+ salt sample for NMR; spectra obtained in 1:1 CH3OD:H2O instead
Experimental: Portions of the ^1H NMR spectra of the K^+ salts of 4, 5, and 6 at 25° C. are shown in FIGS. 5B, 5C, and 5D, respectively. […] For 4, 5, and 6, the H1′/amino resonances display nearly identical diffusion constants of 3.7/3.5, 2.4/2.5, and 1.9/2.0, respectively. These resonances become larger at 5° C. and disappear completely at 55° C. In all three cases, ^1H spectra of the Na^+ salts closely resemble those of the K^+ salts.

SMILES	complex formed (self-association) ([2]; K+ salt)	complex formed (self-association) ([2]; Na+ salt)	solubility in water [3]	hypochromic effect in UV melt [1]
Nc1nc2c(ncn2[C@@H]2O[C@@H]3COP(=O)(O)OC4[C@@H](COP(=O)(O)O[C@@H]3C2O)O[C@@H](n2cnc3c(=O)[nH]c(N)nc32)[C@H]4O)c(=O)[nH]1 (stereo partly shown) [compound 1, cyclic diguanosine monophosphate]				pronounced hypochromism
Nc1nc2c(nc(S)n2[C@@H]2O[C@@H]3COP(=O)(O)OC4C(O)[C@H](n5c(=S)[nH]c6c(=O)[nH]c(N)nc65)O[C@@H]4COP(=O)(O)OC3C2O)c(=O)[nH]1 (stereo partly shown) [compound 3, cyclo-8-thioguanosinylyl (3′→5′)-8′-thioguanosinylyl (3′→5′)]	primarily a syn bimolecular structure	primarily a syn bimolecular structure		

Second part, led by results:

complex formed (self-association) ([2]; K+ salt)	complex formed (self-association) ([2]; Na+ salt)	solubility in water [3]	SMILES	hypochromic effect in UV melt [1]
primarily a syn bimolecular structure	primarily a syn bimolecular structure		CSc1nc2c(=O)[nH]c(N)nc2n1[C@@H]1O[C@@H]2COP(=O)(O)OC3C(O)[C@H](n4c(SC)nc5c(=O)[nH]c(N)nc54)O[C@@H]3COP(=O)(O)OC2C1O (stereo partly shown) [compound 4, cyclo-8-methylthioguanosinylyl (3′→5′)-8′-methylthioguanosinylyl (3′→5′)]	
primarily a syn bimolecular structure	primarily a syn bimolecular structure		Nc1nc2c(nc(-c3ccccc3)n2[C@@H]2O[C@@H]3COP(=O)(O)OC4C(O)[C@H](n5c(-c6ccccc6)nc6c(=O)[nH]c(N)nc65)O[C@@H]4COP(=O)(O)OC3C2O)c(=O)[nH]1 (stereo partly shown) [compound 5, cyclo-8-phenylguanosinylyl (3′→5′)-8′-phenylguanosinylyl (3′→5′)]	
primarily a syn bimolecular structure	primarily a syn bimolecular structure	not soluble in water	CC(=O)c1cccc(-c2nc3c(=O)[nH]c(N)nc3n2[C@@H]2O[C@@H]3COP(=O)(O)OC4C(O)[C@H](n5c(-c6cccc(C(C)=O)c6)nc6c(=O)[nH]c(N)nc65)O[C@@H]4COP(=O)(O)OC3C2O)c1 (stereo partly shown) [compound 6, cyclo-8-(3-acetylphenyl)-guanosinylyl(3′→5′)-8′-(3-acetylphenyl)-guanosinylyl(3′→5′)]	
